Assay results published in EPA's CvTdb concentration-time database.

Legend:
Rat [1] = assay: concentration in brain after dosing
Rat [2] = assay: concentration in plasma after dosing

CC(C)[C@]12CC(=O)[C@H](C)[C@H]1C2 [alpha-Thujone]
dosed: alpha-Thujone, oral
Details | concentration in brain, Rat [1] [ng/g] | concentration in plasma, Rat [2] [ng/mL]
0.5 h, 25 mg/kg, Female, Harlan Sprague Dawley | 801 | 189
0.5 h, 25 mg/kg, Male, Harlan Sprague Dawley | 689 | 407
0.5 h, 50 mg/kg, Female, Harlan Sprague Dawley | 1350 | 474
0.5 h, 50 mg/kg, Male, Harlan Sprague Dawley | 2470 | 710
1.5 h, 25 mg/kg, Male, Harlan Sprague Dawley | 299 | 156
1.5 h, 50 mg/kg, Female, Harlan Sprague Dawley | 966 | 491
1.5 h, 50 mg/kg, Male, F344 | 952 | 294
1.5 h, 50 mg/kg, Male, Harlan Sprague Dawley | 677 | 116
2 min, 25 mg/kg, Female, Harlan Sprague Dawley | 77.8 | 29.7
2 min, 25 mg/kg, Male, Harlan Sprague Dawley | 21 | 45.2
2 min, 50 mg/kg, Female, Harlan Sprague Dawley | 44.8 | 109
2 min, 50 mg/kg, Male, Harlan Sprague Dawley | 40.6 | 11.9
3 h, 25 mg/kg, Female, Harlan Sprague Dawley | 390 | 104
3 h, 25 mg/kg, Male, Harlan Sprague Dawley | 122 | 134
3 h, 50 mg/kg, Female, Harlan Sprague Dawley | 517 | 214
3 h, 50 mg/kg, Male, Harlan Sprague Dawley | 1130 | 255
5 min, 25 mg/kg, Male, Harlan Sprague Dawley | 414 | 146
5 min, 50 mg/kg, Female, F344 | 2010 | 1480
5 min, 50 mg/kg, Female, Harlan Sprague Dawley | 508 | 427
6 h, 25 mg/kg, Female, Harlan Sprague Dawley | 270 | 84.7
6 h, 25 mg/kg, Male, Harlan Sprague Dawley | 77.1 | 119
6 h, 50 mg/kg, Female, F344 | 437 | 146
6 h, 50 mg/kg, Female, Harlan Sprague Dawley | 648 | 209
6 h, 50 mg/kg, Male, Harlan Sprague Dawley | 518 | 174
10 min, 25 mg/kg, Male, Harlan Sprague Dawley | 689 | 323
10 min, 50 mg/kg, Female, F344 | 4550 | 1200
10 min, 50 mg/kg, Female, Harlan Sprague Dawley | 1030 | 547
10 min, 50 mg/kg, Male, F344 | 6400 | 2200
10 min, 50 mg/kg, Male, Harlan Sprague Dawley | 6510 | 2050
12 h, 25 mg/kg, Female, Harlan Sprague Dawley | 12.7 | 3.31
12 h, 25 mg/kg, Male, Harlan Sprague Dawley | – | 16.4
12 h, 50 mg/kg, Female, Harlan Sprague Dawley | 48.5 | 24.3
12 h, 50 mg/kg, Male, Harlan Sprague Dawley | 31.7 | 11.6

dosed: 76231-76-0, 3.0 mg/kg, iv, F344
Details | concentration in brain, Rat [1] [ng/g] | concentration in plasma, Rat [2] [ng/mL]
2 h, Female | 16.8 | 4.41
2.5 h, Female | 11.6 | 2.79
3 h, Female | 11.6 | –
4 h, Male | 26.3 | –
12 h, Male | – | 3.95

O=S(=O)([O-])C(F)(F)C(F)(F)C(F)(F)C(F)(F)C(F)(F)C(F)(F)F.[K+] [Perfluorohexane-1-sulphonic acid – potassium salt]
dosed: Perfluorohexane-1-sulphonic acid – potassium salt, oral
Details | concentration in brain [ng/g] | concentration in plasma [ng/mL]
Rat [1], 3 h, 16 mg/kg, Female, F344 | 1890 | –
Rat [1], 3 h, 16 mg/kg, Female, Harlan Sprague Dawley | 1170 | –
Rat [1], 6 h, 16 mg/kg, Female, F344 | 1490 | –
Rat [1], 6 h, 16 mg/kg, Female, Harlan Sprague Dawley | 1070 | –
Rat [1], 12 h, 16 mg/kg, Female, F344 | 2110 | –
Rat [1], 12 h, 16 mg/kg, Female, Harlan Sprague Dawley | 951 | –
Rat [1], 24 h, 16 mg/kg, Female, F344 | 1460 | –
Rat [1], 24 h, 16 mg/kg, Female, Harlan Sprague Dawley | 731 | –
Rat [1], 48 h, 16 mg/kg, Female, Harlan Sprague Dawley | 515 | –
Rat [1], 192 h, 16 mg/kg, Female, F344 | 847 | –
Rat [1], 528 h, 16 mg/kg, Female, F344 | 523 | –
Rat [2], 0.25 h, 4 mg/kg, Male, F344 | – | 9900
Rat [2], 1 h, 4 mg/kg, Male, F344 | – | 23300
Rat [2], 1 h, 16 mg/kg, Male, F344 | – | 73500
Rat [2], 3 h, 4 mg/kg, Male, F344 | – | 23900
Rat [2], 6 h, 4 mg/kg, Male, F344 | – | 31000
Rat [2], 12 h, 4 mg/kg, Male, F344 | – | 30800
Rat [2], 24 h, 4 mg/kg, Male, F344 | – | 27400
Rat [2], 192 h, 4 mg/kg, Male, F344 | – | 16200
Rat [2], 528 h, 4 mg/kg, Male, F344 | – | 11300
Rat [2], 864 h, 4 mg/kg, Male, F344 | – | 2510
Rat [2], 1200 h, 4 mg/kg, Male, F344 | – | 7070
